The values that follow come from PubChem BioAssay AID330 (DTP/NCI, 2004).

Values joined by “and” are separate entries in the source; they are usually repeats but may differ in a detail not shown here. Equal entries are not always repeated. Inconclusive results and toxic doses are left out.

The subject of this experiment is P388 leukemia ip, CD2F1 mice, survival T/C. As to the kind of experiment: NCI In Vivo Anticancer Drug Screen. Data for tumor model P388 Leukemia (intraperitoneal) in CD2F1 (CDF1) mice. The note with it: endpoint: median survival time, higher = longer survival. The method in brief:
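Mice carrying the transplanted tumor received test compound or vehicle. Survival was recorded in each group, and the value is the treated-group measurement divided by that of the vehicle-treated control group.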

The mark [1] stands for this setting: dose: 100.0 mg/kg/injection, schedule: Q01DX009 (ip), vehicle: saline.
Setting [2] is: dose: 200.0 mg/kg/injection, schedule: Q01DX009 (ip), vehicle: saline.
Where [3] appears, read: dose: 50.0 mg/kg/injection, schedule: Q01DX009 (ip), vehicle: saline with Tween-80.
The mark [4] stands for this setting: dose: 100.0 mg/kg/injection, schedule: Q01DX009 (ip), vehicle: saline with Tween-80.
Setting [5] is: dose: 200.0 mg/kg/injection, schedule: Q01DX009 (ip), vehicle: saline with Tween-80.
The mark [6] stands for this setting: dose: 100.0 mg/kg/injection, schedule: Q01DX001 (ip), vehicle: Klucel (hydroxypropylcellulose) (HPC).
The mark [7] stands for this setting: dose: 200.0 mg/kg/injection, schedule: Q01DX001 (ip), vehicle: Klucel (hydroxypropylcellulose) (HPC).
The mark [8] stands for this setting: dose: 400.0 mg/kg/injection, schedule: Q01DX001 (ip), vehicle: Klucel (hydroxypropylcellulose) (HPC).
Setting [9] is: dose: 25.0 mg/kg/injection, schedule: Q01DX009 (ip), vehicle: Klucel (hydroxypropylcellulose) (HPC).
The mark [10] stands for this setting: dose: 50.0 mg/kg/injection, schedule: Q01DX009 (ip), vehicle: Klucel (hydroxypropylcellulose) (HPC).
[11] abbreviates: dose: 50.0 mg/kg/injection, schedule: Q01DX005 (ip), vehicle: saline with Tween-80.
Setting [12] is: dose: 100.0 mg/kg/injection, schedule: Q01DX005 (ip), vehicle: saline with Tween-80.
The mark [13] stands for this setting: dose: 200.0 mg/kg/injection, schedule: Q01DX005 (ip), vehicle: saline with Tween-80.
Where [14] appears, read: dose: 50.0 mg/kg/injection, schedule: Q01DX009 (ip), vehicle: saline.
Setting [15] is: dose: 50.0 mg/kg/injection, schedule: Q01DX005 (ip), vehicle: Klucel (hydroxypropylcellulose) (HPC).
The mark [16] stands for this setting: dose: 100.0 mg/kg/injection, schedule: Q01DX005 (ip), vehicle: Klucel (hydroxypropylcellulose) (HPC).
Where [17] appears, read: dose: 200.0 mg/kg/injection, schedule: Q01DX005 (ip), vehicle: Klucel (hydroxypropylcellulose) (HPC).

With `COc1cc(C2c3cc4c(cc3CC3COC(=O)N32)OCO4)cc(OC)c1OC` (stereo not drawn), the T/C by setting is: (dose: 3.75 mg/kg/injection, schedule: Q01DX005 (ip), vehicle: Klucel (hydroxypropylcellulose) (HPC)) 98 % of control and 92 % of control; (dose: 7.5 mg/kg/injection, schedule: Q01DX005 (ip), vehicle: Klucel (hydroxypropylcellulose) (HPC)) 88 % of control and 91 % of control and 92 % of control; (dose: 15.0 mg/kg/injection, schedule: Q01DX005 (ip), vehicle: Klucel (hydroxypropylcellulose) (HPC)) 92 % of control (2×) and 97 % of control.

Take `O=c1c(N=Nc2ccccc2)c(O)n(-c2ccc(Cl)cc2)c(=S)n1-c1ccc(Br)cc1`: the T/C is, setting by setting: (dose: 100.0 mg/kg/injection, schedule: Q04DX002 (ip), vehicle: saline with Tween-80) 102 % of control; (dose: 200.0 mg/kg/injection, schedule: Q04DX002 (ip), vehicle: saline with Tween-80) 103 % of control; (dose: 400.0 mg/kg/injection, schedule: Q04DX002 (ip), vehicle: saline with Tween-80) 94 % of control.

Turning to `CCOc1ccc2c(ccc(/C=C\c3cc(C)c4cccnc4c3O)[n+]2C)c1`, the T/C (dose: 3.13 mg/kg/injection, schedule: Q01DX009 (ip), vehicle: saline with Tween-80) was 121 % of control and the T/C (dose: 6.25 mg/kg/injection, schedule: Q01DX009 (ip), vehicle: saline with Tween-80) was 121 % of control.

On to `C=CCS(=O)(=O)O`, for which the T/C by setting is: under setting [1], 100 % of control; under setting [2], 104 % of control; (dose: 400.0 mg/kg/injection, schedule: Q01DX009 (ip), vehicle: saline) 100 % of control.

For `CN(C)c1cc(=O)c2c(ccc3ccccc32)o1`, the T/C reads like this: under setting [3], 92 % of control; under setting [4], 95 % of control; under setting [5], 95 % of control.

As to `CCN(CC)c1c(C)c(-c2ccccc2)n[n+]([O-])c1-c1ccccc1`, the T/C by setting is: under setting [6], 104 % of control; under setting [7], 107 % of control; under setting [8], 104 % of control.

On to `COC(=O)CN(C)P(=O)(N1CC1)N1CC1`, for which the T/C by setting is: (dose: 1.87 mg/kg/injection, schedule: Q01DX005 (ip), vehicle: saline) 107 % of control; (dose: 3.75 mg/kg/injection, schedule: Q01DX005 (ip), vehicle: saline) 124 % of control; (dose: 7.5 mg/kg/injection, schedule: Q01DX005 (ip), vehicle: saline with Tween-80) 198 % of control; (dose: 15.0 mg/kg/injection, schedule: Q01DX005 (ip), vehicle: saline) 197 % of control.

Regarding `O=C(CCc1ccc(O)cc1)ON1C(=O)CCC1=O`, the T/C by setting is: (dose: 12.5 mg/kg/injection, schedule: Q01DX009 (ip), vehicle: Klucel (hydroxypropylcellulose) (HPC)) 108 % of control; under setting [9], 109 % of control; under setting [10], 104 % of control.

For `O=C1C=CC(=O)N1c1ccccc1[N+](=O)[O-]`, the T/C (dose: 6.0 mg/kg/injection, schedule: Q01DX009 (ip), vehicle: saline with Tween-80) is 91 % of control.

Turning to `COC1=CC(C(=O)O)C=C(OC)C1`, the T/C is, setting by setting: under setting [11], 102 % of control; under setting [12], 104 % of control; under setting [13], 89 % of control.

Take `CCOc1cc2c(cc1C(CC(=O)O)c1ccc(OC)cc1)OCO2` (stereo not drawn): the T/C runs as follows: (dose: 50.0 mg/kg/injection, schedule: Q01DX005 (ip), vehicle: distilled water + Tween-80) 101 % of control; (dose: 100.0 mg/kg/injection, schedule: Q01DX005 (ip), vehicle: distilled water + Tween-80) 92 % of control; (dose: 200.0 mg/kg/injection, schedule: Q01DX005 (ip), vehicle: distilled water + Tween-80) 90 % of control.

As to `CC(C)(COS(C)(=O)=O)COS(C)(=O)=O`, the T/C runs as follows: under setting [14], 107 % of control; (dose: 50.0 mg/kg/injection, schedule: Q01DX009 (ip), vehicle: suspension in saline) 96 % of control; under setting [1], 91 % of control; (dose: 100.0 mg/kg/injection, schedule: Q01DX009 (ip), vehicle: suspension in saline) 101 % of control and 91 % of control; under setting [2], 110 % of control; (dose: 200.0 mg/kg/injection, schedule: Q01DX009 (ip), vehicle: suspension in saline) 104 % of control and 92 % of control. The T/C (dose: 400.0 mg/kg/injection, schedule: Q01DX009 (ip), vehicle: suspension in saline) was 112 % of control and 90 % of control.

For `CC1c2ccoc2CC2C1C(O)C(O)C1C(C)(C)CCCC21C` (stereo not drawn), the T/C was 106 % of control (dose: 100.0 mg/kg/injection, schedule: Q04DX002 (ip), vehicle: suspension in saline); 106 % of control (dose: 200.0 mg/kg/injection, schedule: Q04DX002 (ip), vehicle: suspension in saline); 98 % of control (dose: 400.0 mg/kg/injection, schedule: Q04DX002 (ip), vehicle: suspension in saline).

As for `CN/N=C/c1cc(=O)n(C)c(=O)n1C`, the T/C under setting [3] is 101 % of control, the T/C under setting [4] is 101 % of control and the T/C under setting [5] is 99 % of control.

As to `Cc1ccc(NS(=O)(=O)c2ccc(Cl)cc2)cc1Cl`, the T/C under setting [4] was 104 % of control; the T/C under setting [5] is 98 % of control; the T/C (dose: 400.0 mg/kg/injection, schedule: Q01DX009 (ip), vehicle: saline with Tween-80) was 100 % of control.

As for `Cc1ccc(S(=O)(=O)/N=C2\CCN(S(=O)(=O)c3ccccc3)N2S(=O)(=O)c2ccc(C)cc2)cc1`, the T/C runs as follows: under setting [15], 99 % of control; under setting [16], 90 % of control; under setting [17], 94 % of control.

Regarding `C[n+]1ccc(/C=C/c2ccccc2O)cc1`, the T/C reads like this: (dose: 12.5 mg/kg/injection, schedule: Q01DX009 (ip), vehicle: saline) 89 % of control; (dose: 25.0 mg/kg/injection, schedule: Q01DX009 (ip), vehicle: saline) 94 % of control; under setting [14], 106 % of control; under setting [1], 117 % of control.

Take `CC(=O)C1CC(CC(=O)O)C1(C)C` (stereo not drawn): the T/C was 96 % of control under setting [9]; 108 % of control and 92 % of control under setting [10]; 96 % of control and 97 % of control (dose: 100.0 mg/kg/injection, schedule: Q01DX009 (ip), vehicle: Klucel (hydroxypropylcellulose) (HPC)); 99 % of control and 100 % of control (dose: 200.0 mg/kg/injection, schedule: Q01DX009 (ip), vehicle: Klucel (hydroxypropylcellulose) (HPC)); 100 % of control (dose: 400.0 mg/kg/injection, schedule: Q01DX009 (ip), vehicle: Klucel (hydroxypropylcellulose) (HPC)).

`COc1cc(C)c(C)cc1C1(c2cc(C)c(C)cc2O)C(=O)c2ccccc2C1=O`: the T/C is, setting by setting: under setting [14], 100 % of control; under setting [1], 93 % of control.

On to `Cc1cc(Cl)ccc1N1C(=O)[N+](C)(C)N=C1[O-]`, for which the T/C (dose: 100.0 mg/kg/injection, schedule: Q04DX003 (ip), vehicle: saline) is 103 % of control and the T/C (dose: 200.0 mg/kg/injection, schedule: Q04DX003 (ip), vehicle: saline) is 103 % of control.

In the case of `COC(=O)/C=C/c1cccn1C(=O)c1c(Cl)cccc1Cl`, the T/C by setting is: under setting [11], 97 % of control; under setting [12], 98 % of control; under setting [13], 87 % of control.

Take `Cc1ccc(S(=O)(=O)N/N=C/C(N)=O)cc1`: the T/C is 101 % of control (dose: 12.5 mg/kg/injection, schedule: Q01DX009 (ip), vehicle: other); 101 % of control (dose: 25.0 mg/kg/injection, schedule: Q01DX009 (ip), vehicle: other); 96 % of control (dose: 50.0 mg/kg/injection, schedule: Q01DX009 (ip), vehicle: other); 104 % of control (dose: 100.0 mg/kg/injection, schedule: Q01DX009 (ip), vehicle: other); 118 % of control (dose: 200.0 mg/kg/injection, schedule: Q01DX009 (ip), vehicle: other); 101 % of control (dose: 400.0 mg/kg/injection, schedule: Q01DX009 (ip), vehicle: other).

With `Cc1ccc(S(=O)(=O)N/N=C/c2c(Cl)nc3n2CCS3)cc1`, the T/C was 101 % of control under setting [6], 94 % of control under setting [7] and 94 % of control under setting [8].

`O=c1ccn(C2CC(O)C(CO)O2)c(=O)[nH]1` (stereo not drawn): the T/C was 100 % of control under setting [15], 101 % of control under setting [16] and 106 % of control under setting [17].
